# Measurements reported in ChEMBL document CHEMBL4680156, “Discovery of novel pyrido-pyrrolidine hybrid compounds as alpha-glucosidase inhibitors and alternative agent for control of type 1 diabetes” (Eur J Med Chem, 2020).
# Key:
# [1] = Inhibition of Saccharomyces cerevisiae alpha-glucosidase using pNPG as substrate preincubated for 15 mins followed by substrate addition and measured after 30 mins by spectrophotometric analysis
# [2] = Inhibition of Saccharomyces cerevisiae alpha-glucosidase using PNPG as substrate incubated for 10 mins by spectrophotometric method
# [3] = target: T1, Alpha-mannosidase (Canavalia ensiformis) (UniProt C0HJB3); test: Inhibition of jack bean alpha-mannosidase at 1 mM using […] as substrate incubated for 10 mins by spectrophotometric method
# T1 sequence (whole entry): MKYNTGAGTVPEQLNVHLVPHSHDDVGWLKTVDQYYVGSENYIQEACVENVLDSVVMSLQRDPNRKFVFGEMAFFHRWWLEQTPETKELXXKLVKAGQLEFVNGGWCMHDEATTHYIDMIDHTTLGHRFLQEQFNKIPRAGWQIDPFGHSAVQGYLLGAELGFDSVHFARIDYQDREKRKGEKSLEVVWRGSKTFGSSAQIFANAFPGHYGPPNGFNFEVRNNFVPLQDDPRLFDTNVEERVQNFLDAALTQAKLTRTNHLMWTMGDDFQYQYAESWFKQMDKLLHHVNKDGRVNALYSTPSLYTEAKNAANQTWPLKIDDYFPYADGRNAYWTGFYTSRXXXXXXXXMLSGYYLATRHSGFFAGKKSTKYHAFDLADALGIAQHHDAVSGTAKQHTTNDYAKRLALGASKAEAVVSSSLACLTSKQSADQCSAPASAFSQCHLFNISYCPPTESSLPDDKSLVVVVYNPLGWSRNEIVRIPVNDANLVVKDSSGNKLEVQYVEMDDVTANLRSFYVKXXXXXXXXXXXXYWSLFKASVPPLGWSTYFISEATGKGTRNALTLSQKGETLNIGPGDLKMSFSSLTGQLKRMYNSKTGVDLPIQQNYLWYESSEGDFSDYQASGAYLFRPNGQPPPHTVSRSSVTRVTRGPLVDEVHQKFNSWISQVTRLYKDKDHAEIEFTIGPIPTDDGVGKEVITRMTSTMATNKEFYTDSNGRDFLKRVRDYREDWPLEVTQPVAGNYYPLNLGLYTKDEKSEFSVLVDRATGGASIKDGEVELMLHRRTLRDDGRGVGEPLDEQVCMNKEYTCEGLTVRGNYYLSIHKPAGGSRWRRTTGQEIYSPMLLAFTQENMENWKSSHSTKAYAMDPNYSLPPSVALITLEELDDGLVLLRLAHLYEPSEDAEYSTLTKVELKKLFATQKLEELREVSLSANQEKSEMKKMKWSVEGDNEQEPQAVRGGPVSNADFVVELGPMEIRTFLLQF
# [4] = Non-competitive inhibition of rat intestinal alpha-glucosidase; assay type: tissue-based, Intestine
# [5] = target: T2, Tissue alpha-L-fucosidase (Bos taurus, UniProt Q2KIM0); test: Inhibition of bovine kidney alpha-fucosidase using […] as substrate incubated for 10 mins by spectrophotometric method
# T2 sequence (Q2KIM0 whole entry): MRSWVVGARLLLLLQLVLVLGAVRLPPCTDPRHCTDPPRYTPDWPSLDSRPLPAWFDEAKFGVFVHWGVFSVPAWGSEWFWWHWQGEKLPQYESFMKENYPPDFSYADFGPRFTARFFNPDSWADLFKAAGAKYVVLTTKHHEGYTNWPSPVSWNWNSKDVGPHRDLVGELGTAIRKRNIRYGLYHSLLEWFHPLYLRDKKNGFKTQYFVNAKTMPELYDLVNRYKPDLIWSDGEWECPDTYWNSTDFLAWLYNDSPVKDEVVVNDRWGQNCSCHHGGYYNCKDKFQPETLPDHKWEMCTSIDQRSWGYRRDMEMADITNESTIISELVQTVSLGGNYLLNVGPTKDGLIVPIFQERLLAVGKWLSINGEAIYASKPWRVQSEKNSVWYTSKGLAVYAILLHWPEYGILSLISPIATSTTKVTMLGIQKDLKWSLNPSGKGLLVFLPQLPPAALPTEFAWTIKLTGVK
# Alpha-mannosidase = target: T3, Alpha-mannosidase (Canavalia ensiformis, UniProt C0HJB3); test: Inhibition of jack bean alpha-mannosidase using […] as substrate incubated for 10 mins by spectrophotometric method
# T3 sequence (C0HJB3 whole entry): T1 sequence (whole entry)
IC50 [1] [µM],inhibition [3] [%],SMILES,IC50 [2] [µM],Ki [4] [µM],IC50 [5] [µM],IC50 (Alpha-mannosidase) [µM]
0.16,< 50,CCCCCCCCn1cnc2cc(N)c(-c3ccccc3O)cc21,5.03,,,
,,CCC/C=C1/OC(=O)c2ccccc21 [(E)-BUTYLIDENEPHTHALIDE],7.15,4.86,82,41
